Measured values taken from the Kinase Knowledgebase extract (Sharma et al. 2016).

What was measured:
PIK3CD (Human) [1] = target: PIK3CD (Human) (UniProt O00329); test: Inhibition of PIK3CD Kinase Activity
ROCK2 (human) = ROCK2 (human) (UniProt O75116); test: Enzyme Assay; details: for activity: concentration not given here
PIK3CG (human) = PIK3CG (human) (UniProt P48736); test: Assessment of PIK3CG Kinase Activity
PIK3CA (human) [2] = target: PIK3CA (human) (UniProt P42336); test: Enzyme Assay
PIK3CA (human), sequence (P42336 whole entry, looked up): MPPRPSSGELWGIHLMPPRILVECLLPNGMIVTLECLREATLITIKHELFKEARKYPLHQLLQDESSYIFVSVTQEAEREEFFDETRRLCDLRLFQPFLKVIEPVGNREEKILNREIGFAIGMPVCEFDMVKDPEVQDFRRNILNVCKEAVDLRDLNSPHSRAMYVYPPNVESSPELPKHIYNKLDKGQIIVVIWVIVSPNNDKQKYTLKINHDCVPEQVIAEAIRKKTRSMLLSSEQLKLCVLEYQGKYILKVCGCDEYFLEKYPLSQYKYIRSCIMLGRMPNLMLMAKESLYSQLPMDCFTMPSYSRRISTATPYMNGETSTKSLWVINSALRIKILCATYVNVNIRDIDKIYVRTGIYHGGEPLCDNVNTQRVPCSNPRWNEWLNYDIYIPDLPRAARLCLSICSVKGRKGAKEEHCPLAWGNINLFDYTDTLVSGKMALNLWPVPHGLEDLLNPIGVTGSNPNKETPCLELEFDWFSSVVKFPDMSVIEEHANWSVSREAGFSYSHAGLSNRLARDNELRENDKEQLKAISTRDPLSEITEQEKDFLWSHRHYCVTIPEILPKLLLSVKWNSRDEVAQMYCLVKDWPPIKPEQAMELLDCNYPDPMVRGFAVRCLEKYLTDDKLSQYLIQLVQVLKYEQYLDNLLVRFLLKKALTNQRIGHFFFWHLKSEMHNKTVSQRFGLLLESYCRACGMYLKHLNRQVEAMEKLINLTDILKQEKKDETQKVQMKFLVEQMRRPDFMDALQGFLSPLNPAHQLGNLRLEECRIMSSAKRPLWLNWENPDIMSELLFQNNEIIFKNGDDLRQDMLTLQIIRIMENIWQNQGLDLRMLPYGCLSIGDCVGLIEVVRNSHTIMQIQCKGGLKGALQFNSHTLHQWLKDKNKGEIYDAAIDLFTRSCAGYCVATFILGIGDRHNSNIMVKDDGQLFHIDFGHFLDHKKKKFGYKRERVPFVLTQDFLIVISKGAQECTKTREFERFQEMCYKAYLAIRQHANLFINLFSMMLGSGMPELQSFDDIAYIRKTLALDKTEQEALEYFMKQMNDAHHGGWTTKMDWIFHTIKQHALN

PIK3CD (Human) [3] = target: PIK3CD (Human) (UniProt O00329); test: Enzyme Assay
MAPK14 (human) = MAPK14 (human) (UniProt Q16539); test: Enzyme Assay; details: concentration not given here
MAPK14 (human), sequence (Q16539 whole entry, looked up): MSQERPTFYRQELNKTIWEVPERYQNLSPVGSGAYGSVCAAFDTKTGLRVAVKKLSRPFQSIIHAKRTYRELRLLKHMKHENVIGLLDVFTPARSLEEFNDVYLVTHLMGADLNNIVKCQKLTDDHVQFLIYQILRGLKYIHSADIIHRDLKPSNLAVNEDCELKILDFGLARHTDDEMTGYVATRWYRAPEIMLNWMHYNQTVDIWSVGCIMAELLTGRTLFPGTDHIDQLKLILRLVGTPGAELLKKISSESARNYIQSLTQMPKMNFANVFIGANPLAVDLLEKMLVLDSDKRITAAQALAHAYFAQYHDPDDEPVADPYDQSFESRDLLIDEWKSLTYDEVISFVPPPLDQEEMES

PIK3CD (Human) [4] = target: PIK3CD (Human) (UniProt O00329); test: Assessment of PIK3CD Kinase Activity
PIK3CA (human) [5] = target: PIK3CA (human) (UniProt P42336); test: Inhibition of PIK3CA Kinase Activity
PIK3CA (human) [6] = target: PIK3CA (human) (UniProt P42336); test: Assessment of PIK3CA Kinase Activity

ROCK2 (human), sequence (O75116 whole entry, looked up): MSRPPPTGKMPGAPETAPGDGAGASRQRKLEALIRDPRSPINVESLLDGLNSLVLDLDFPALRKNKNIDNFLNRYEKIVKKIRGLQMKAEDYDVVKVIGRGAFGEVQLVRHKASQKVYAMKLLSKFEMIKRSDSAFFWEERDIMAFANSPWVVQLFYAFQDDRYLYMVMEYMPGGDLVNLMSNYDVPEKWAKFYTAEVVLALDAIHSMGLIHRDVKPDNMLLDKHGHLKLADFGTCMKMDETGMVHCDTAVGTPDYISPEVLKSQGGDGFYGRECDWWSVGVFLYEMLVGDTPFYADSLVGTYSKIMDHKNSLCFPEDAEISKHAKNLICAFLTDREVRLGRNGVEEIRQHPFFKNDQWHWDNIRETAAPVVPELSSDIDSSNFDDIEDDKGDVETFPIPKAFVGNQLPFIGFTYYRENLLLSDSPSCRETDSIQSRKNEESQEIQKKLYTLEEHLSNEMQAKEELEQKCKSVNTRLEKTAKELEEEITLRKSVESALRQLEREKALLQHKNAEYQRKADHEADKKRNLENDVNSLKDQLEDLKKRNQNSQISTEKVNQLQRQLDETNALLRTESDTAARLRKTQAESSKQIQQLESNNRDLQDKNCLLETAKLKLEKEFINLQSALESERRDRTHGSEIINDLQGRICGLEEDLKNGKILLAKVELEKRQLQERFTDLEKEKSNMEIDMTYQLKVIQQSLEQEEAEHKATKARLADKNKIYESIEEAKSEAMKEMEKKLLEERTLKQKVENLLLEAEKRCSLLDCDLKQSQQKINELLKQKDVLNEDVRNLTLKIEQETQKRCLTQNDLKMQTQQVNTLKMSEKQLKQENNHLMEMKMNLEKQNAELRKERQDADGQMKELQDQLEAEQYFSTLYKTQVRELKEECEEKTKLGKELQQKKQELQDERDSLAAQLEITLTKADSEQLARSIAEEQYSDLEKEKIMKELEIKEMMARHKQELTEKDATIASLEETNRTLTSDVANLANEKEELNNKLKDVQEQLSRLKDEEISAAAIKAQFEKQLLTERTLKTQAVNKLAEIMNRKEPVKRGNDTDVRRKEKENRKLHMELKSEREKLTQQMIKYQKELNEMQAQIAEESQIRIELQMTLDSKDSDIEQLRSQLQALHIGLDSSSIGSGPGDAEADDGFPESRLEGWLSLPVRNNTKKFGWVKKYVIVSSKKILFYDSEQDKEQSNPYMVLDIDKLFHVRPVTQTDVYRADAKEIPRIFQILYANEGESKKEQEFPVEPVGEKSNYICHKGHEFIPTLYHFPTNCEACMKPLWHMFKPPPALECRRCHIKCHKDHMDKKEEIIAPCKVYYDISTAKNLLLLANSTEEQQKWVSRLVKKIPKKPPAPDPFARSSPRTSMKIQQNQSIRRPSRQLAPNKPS
PIK3CD (Human), sequence (O00329 whole entry, looked up): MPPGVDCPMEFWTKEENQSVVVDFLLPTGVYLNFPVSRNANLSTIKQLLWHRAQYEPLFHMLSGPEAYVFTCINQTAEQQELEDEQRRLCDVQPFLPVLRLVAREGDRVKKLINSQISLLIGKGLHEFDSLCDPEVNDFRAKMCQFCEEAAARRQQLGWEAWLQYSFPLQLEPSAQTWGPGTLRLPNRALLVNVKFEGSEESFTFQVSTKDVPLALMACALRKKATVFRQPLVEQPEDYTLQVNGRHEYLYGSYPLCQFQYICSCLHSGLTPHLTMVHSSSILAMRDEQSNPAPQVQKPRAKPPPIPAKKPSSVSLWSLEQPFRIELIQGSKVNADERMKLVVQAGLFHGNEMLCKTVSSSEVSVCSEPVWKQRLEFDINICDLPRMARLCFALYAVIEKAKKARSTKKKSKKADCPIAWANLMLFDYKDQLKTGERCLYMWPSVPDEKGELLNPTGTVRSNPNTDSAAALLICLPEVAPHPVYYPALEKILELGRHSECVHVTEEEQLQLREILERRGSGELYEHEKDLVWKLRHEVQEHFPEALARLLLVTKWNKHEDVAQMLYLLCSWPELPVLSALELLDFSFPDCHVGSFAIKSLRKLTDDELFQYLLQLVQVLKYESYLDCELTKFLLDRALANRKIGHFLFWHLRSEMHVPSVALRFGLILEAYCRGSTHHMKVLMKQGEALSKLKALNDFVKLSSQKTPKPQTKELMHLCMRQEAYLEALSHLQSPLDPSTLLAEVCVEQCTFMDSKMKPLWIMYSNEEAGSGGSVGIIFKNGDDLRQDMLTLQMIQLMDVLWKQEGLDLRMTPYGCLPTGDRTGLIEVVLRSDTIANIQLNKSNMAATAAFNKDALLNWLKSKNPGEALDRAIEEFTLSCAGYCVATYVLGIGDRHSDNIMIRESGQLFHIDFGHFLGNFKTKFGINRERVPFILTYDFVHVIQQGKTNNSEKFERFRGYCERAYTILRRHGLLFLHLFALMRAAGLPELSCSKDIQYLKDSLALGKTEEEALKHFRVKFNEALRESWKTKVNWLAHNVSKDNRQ
PIK3CG (human), sequence (P48736 whole entry, looked up): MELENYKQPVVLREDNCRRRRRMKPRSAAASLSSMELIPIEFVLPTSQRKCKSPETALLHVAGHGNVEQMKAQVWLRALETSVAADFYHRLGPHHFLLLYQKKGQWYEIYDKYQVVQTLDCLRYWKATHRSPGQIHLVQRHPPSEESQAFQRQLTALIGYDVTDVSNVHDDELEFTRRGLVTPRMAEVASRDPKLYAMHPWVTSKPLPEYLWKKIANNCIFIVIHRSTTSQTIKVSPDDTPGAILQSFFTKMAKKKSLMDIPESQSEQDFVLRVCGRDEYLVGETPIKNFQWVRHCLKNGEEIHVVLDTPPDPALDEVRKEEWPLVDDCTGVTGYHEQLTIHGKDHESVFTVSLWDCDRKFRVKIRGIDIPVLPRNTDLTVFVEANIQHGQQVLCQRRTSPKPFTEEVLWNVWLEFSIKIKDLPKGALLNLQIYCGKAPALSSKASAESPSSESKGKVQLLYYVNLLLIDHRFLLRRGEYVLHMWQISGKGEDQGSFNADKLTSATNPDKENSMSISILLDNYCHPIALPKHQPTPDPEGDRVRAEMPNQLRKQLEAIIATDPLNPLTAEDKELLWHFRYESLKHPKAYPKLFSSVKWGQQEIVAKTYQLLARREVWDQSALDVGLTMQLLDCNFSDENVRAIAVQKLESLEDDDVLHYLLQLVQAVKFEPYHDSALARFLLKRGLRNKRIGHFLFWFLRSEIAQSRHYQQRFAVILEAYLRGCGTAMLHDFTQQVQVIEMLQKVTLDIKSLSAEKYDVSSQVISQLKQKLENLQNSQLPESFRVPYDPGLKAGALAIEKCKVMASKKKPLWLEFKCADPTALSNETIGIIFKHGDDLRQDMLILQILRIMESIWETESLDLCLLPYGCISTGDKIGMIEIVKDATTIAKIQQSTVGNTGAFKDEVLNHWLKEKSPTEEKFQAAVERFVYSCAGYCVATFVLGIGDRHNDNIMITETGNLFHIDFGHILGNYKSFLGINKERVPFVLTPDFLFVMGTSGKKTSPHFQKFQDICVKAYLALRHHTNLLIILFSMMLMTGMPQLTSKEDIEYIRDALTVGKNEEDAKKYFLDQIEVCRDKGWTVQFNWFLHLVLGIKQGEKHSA

Compound: O=C1NC(=O)/C(=C/c2ccc3cc(F)oc3c2)S1
- IC50 (PIK3CD (Human) [1]): 20000 nM

Compound: COc1cc(C(=O)NCc2ccc(Cl)cc2)ccc1-c1cn[nH]c1
- IC50 (ROCK2 (human)): 4.93 nM

Compound: CNS(=O)(=O)c1cncc(-c2ccc3nc(NC(C)=O)nn3c2)c1
- IC50 (PIK3CG (human)): 7.94 nM

Compound: O=C1NC(=O)/C(=C/c2ccc3c(c2)OCCO3)S1
- IC50 (PIK3CD (Human) [1]): 20000 nM

Compound: C[C@H](Nc1ncnc2[nH]cnc12)c1cc2cccc(Cl)c2nc1-c1cc(F)ccc1Cl
- IC50 (PIK3CD (Human) [1]): 8 nM

Compound: CCNC(=O)Nc1ccc(-c2nc(N3CCCOCC3)c3c(ncn3C)n2)cc1
- Ki (PIK3CA (human) [2]): 6400 nM
- Ki (PIK3CD (Human) [3]): 7300 nM

Compound: CCOC(=O)c1cc(Nc2nc(C)c3ccc(=O)n(C)c3n2)cn1CCc1ccccc1
- IC50 (PIK3CG (human)): 63 nM

Compound: CO[C@H]1C[C@@H]2CC[C@@H](C)[C@@](O)(O2)C(=O)C(=O)N2CCCC[C@H]2C(=O)O[C@H]([C@H](C)C[C@@H]2CC[C@@H](O)[C@H](OC)C2)CC(=O)[C@H](C)C=C(C)[C@@H](O)[C@@H](OC)C(=O)[C@H](C)C[C@H](C)C=CC=CC=C1C
- activity (MAPK14 (human)): 93%
- activity (ROCK2 (human)): 106%

Compound: COc1ccc2c(c1)CN(c1nc3c(c(Nc4ccc5[nH]ncc5c4)n1)CNC3)C2
- IC50 (ROCK2 (human)): 24300 nM

Compound: CC(Nc1ncnc2[nH]cnc12)c1cc(Cl)c2cncn2c1-c1cccc(F)c1 (centres undefined)
- IC50 (PIK3CD (Human) [4]): ≤ 50 nM

Compound: Nc1cccc(CN2CC[C@@H](Nc3cccc4cnccc34)C2)c1
- IC50 (ROCK2 (human)): 25 nM

Compound: Oc1ccc(-c2nc(-c3ccc(F)cc3)c(-c3ccncc3)[nH]2)cc1
- Ki (ROCK2 (human)): 3980 nM

Compound: CN1CCC(c2ccccc2CC(C)(C)Nc2nc(N3CCOCC3)nc(-n3c(C(F)F)nc4ccccc43)n2)C1 (centres undefined)
- IC50 (PIK3CD (Human) [1]): < 100 nM

Compound: C[C@H](Nc1ncnc2[nH]cnc12)c1cc2ccc(F)cc2nc1-c1cccnc1
- IC50 (PIK3CD (Human) [1]): 23 nM

Compound: Cc1nc(Nc2cc(C(=O)O)n(CCc3ccccc3)c2)nc2c1ccc(=O)n2C
- IC50 (PIK3CG (human)): 148 nM

Compound: Cc1c(-c2ccccc2[S+](C)[O-])nc2cc(F)cc(F)c2c1Nc1cc(N2CCOCC2)cnc1N1CCOCC1 (centres undefined)
- Ki (PIK3CD (Human) [4]): 51 nM

Compound: Cc1ncc2c(Cl)cc(C(C)Nc3ncnc4[nH]cnc34)c(-c3cccc(F)c3)n12 (centres undefined)
- IC50 (PIK3CD (Human) [4]): ≤ 50 nM

Compound: Cc1c(N2CCN(C(=O)N(C)C)CC2)nc2cc(F)cc(F)c2c1Nc1cncc(N2CCOCC2)c1C(=O)N(C)C
- Ki (PIK3CD (Human) [4]): 81.6 nM

Compound: CC(=O)Nc1nc(C)c(-c2ccc(S(=O)(=O)N[C@H](CO)c3ccccc3)o2)s1
- Ki (PIK3CG (human)): < 100 nM

Compound: CS(=O)(=O)N1CCN(Cc2csc3c(-c4cnc(N)nc4)nc(N4CCOCC4)nc23)CC1
- IC50 (PIK3CA (human) [2]): 9.5 nM
- IC50 (PIK3CD (Human) [3]): 18 nM

Compound: COc1cc(C#Cc2cc(NC(=O)NCCOCC3CC3)nn2C)cnc1OC
- Ki (PIK3CG (human)): < 100 nM

Compound: COc1ccc(C2=NNC(=O)C2=NNc2cccnc2)cc1
- Ki (PIK3CG (human)): 1000 nM

Compound: Nc1ncnc2c1c(I)nn2Cc1cc2c(Cl)cccc2nc1-c1ccccc1Cl
- IC50 (PIK3CD (Human) [1]): 35 nM

Compound: COCCC(=O)c1ccc(C(=O)Nc2cccc(CN3CCC(Nc4cccc5cnccc45)CC3)c2)cc1
- IC50 (ROCK2 (human)): < 100 nM

Compound: CN[C@@H]1C[C@H]2O[C@@](C)([C@@H]1OC)n1c3ccccc3c3c4c(c5c6ccccc6n2c5c31)C(=O)N[C@@H]4O
- activity (MAPK14 (human)): 92%
- activity (ROCK2 (human)): 22%

Compound: COC(=O)Nc1nc2ccc(C(=O)c3cccs3)cc2[nH]1
- Kd (PIK3CG (human)): 1500 nM

Compound: N=C1NC(=O)/C(=C/c2ccc3c(c2)OCO3)S1
- IC50 (PIK3CD (Human) [1]): 20000 nM
- IC50 (PIK3CA (human) [5]): 20000 nM

Compound: CC(C)COC(=O)c1cccc(NC(=O)c2cccc(-c3cc(C(=O)Nc4ccncc4F)ccc3CN)c2)c1
- IC50 (ROCK2 (human)): 2.6 nM

Compound: O=S(=O)(NCCNC/C=C/c1ccc(Br)cc1)c1cccc2cnccc12
- activity (ROCK2 (human)): 0%

Compound: CCOC(=O)c1cc(Nc2nc(C)c3cc(F)c(=O)n(C4CCCC4)c3n2)cn1CCc1ccccc1
- IC50 (PIK3CG (human)): 160 nM

Compound: CC(Nc1ncnc(N)c1C#N)c1nc2ccc(F)cc2c(C(=O)N(C)C)c1-c1ccccn1 (centres undefined)
- Ki (PIK3CD (Human) [4]): 7.77 nM

Compound: O=C1NC(=S)S/C1=C\c1ccc2c(c1)OCO2
- IC50 (PIK3CD (Human) [1]): 20000 nM

Compound: Cc1ccccc1-c1nc2c(C)cccc2cc1COc1ncnc2[nH]cnc12
- IC50 (PIK3CD (Human) [1]): 27 nM

Compound: CCc1cccn2c(-c3cccc(F)c3)c(C(C)Nc3ncnc4[nH]cnc34)nc12 (centres undefined)
- IC50 (PIK3CD (Human) [4]): 500 to 990 nM

Compound: COc1cc(C(=O)NCc2cccc(Cl)c2)ccc1-c1cn[nH]c1
- IC50 (ROCK2 (human)): 49.7 nM

Compound: O=C1NC(=O)C(c2c[nH]c3ccccc23)=C1c1c[nH]c2ccccc12
- activity (ROCK2 (human)): 100%

Compound: O=C1NC(=O)/C(=C/c2ccc3c(c2)NCCO3)S1
- IC50 (PIK3CD (Human) [1]): 20000 nM

Compound: COc1cccc([C@@H](C)NC(=O)c2cc3ccc(-c4cn[nH]c4)cc3[nH]2)c1
- IC50 (ROCK2 (human)): 1 nM

Compound: COc1ncc(N2CCc3ncnc(N[C@H]4CCN(C(=O)[C@H]5CC[C@@H](O)CC5)C4)c3C2)cc1C(F)(F)F
- IC50 (PIK3CA (human) [2]): 118 nM
- IC50 (PIK3CD (Human) [3]): 4 nM

Compound: O=c1n(Cc2ccccc2)c2nc(-c3cccc(O)c3)nc(C3=CCOCC3)c2n1Cc1ccccc1
- IC50 (PIK3CA (human) [6]): 2420 nM
- IC50 (PIK3CG (human)): 1610 nM

Compound: COc1cccc(CN(C)C(=O)Nc2ccc(-c3cn[nH]c3)cc2OCCN2CCCC2)c1
- IC50 (ROCK2 (human)): < 1 nM

Compound: CCNC(=O)Oc1nc2cc(-c3nc(N4CCOCC4)c4ccn(CC(F)(F)F)c4n3)ccc2[nH]1
- IC50 (PIK3CA (human) [6]): 1840 nM
- IC50 (PIK3CG (human)): 210 nM

Compound: O=C(Nc1ccc(-c2nc(N3CCOCC3)nc(N3CCOCC3)n2)cc1)Nc1ccc(F)cc1F
- IC50 (PIK3CA (human) [6]): 60.5 nM
- IC50 (PIK3CG (human)): 528 nM

Compound: Oc1cncc(-c2nc(C3=CCOCC3)c3ncn(C4CCN(Cc5cncc(Br)c5)CC4)c3n2)c1
- IC50 (PIK3CA (human) [6]): 1340 nM
- IC50 (PIK3CG (human)): 6740 nM

Compound: COc1ccc2sc(C(=O)Nc3nnn[nH]3)c(Sc3ccoc3C)c2c1
- IC50 (PIK3CG (human)): 2210 nM

Compound: CCNC(=O)Nc1ccc(-c2nc(N3CCOC[C@@H]3CC)c3c(ncn3C)n2)cc1
- Ki (PIK3CA (human) [2]): > 10000 nM
- Ki (PIK3CD (Human) [3]): > 10000 nM

Compound: CCOc1ccc2sc(C(=O)Nc3nnn[nH]3)c(SCCc3ccccc3)c2c1
- IC50 (PIK3CG (human)): 2850 nM

Compound: COc1cc2c(Sc3cccc(Cl)c3)c(C(=O)Nc3nnn[nH]3)sc2cc1C
- IC50 (PIK3CG (human)): 170 nM

Compound: COc1ccc(C2=NNC(=O)C2=NNc2ccccc2)cn1
- Ki (PIK3CG (human)): 540 nM

Compound: COCCOn1ccc(-c2ccc3nc(N)sc3c2)cc1=O
- IC50 (PIK3CD (Human) [3]): 100000 nM

Compound: CC(=O)Nc1nc(C)c(-c2ccc(S(C)(=O)=O)cn2)s1
- IC50 (PIK3CG (human)): 1840 nM

Compound: O=C(NCCO)Oc1ccc(-c2nc(N3CCOCC3)c3ccn(CC(F)(F)F)c3n2)cc1
- IC50 (PIK3CA (human) [6]): 570 nM
- IC50 (PIK3CG (human)): 1720 nM

Compound: CN1C(=O)COc2ccc(/C=C3\SC(=O)NC3=O)cc21
- IC50 (PIK3CD (Human) [1]): 20000 nM

Compound: Fc1ccc(Cl)c(-c2nc3c(Cl)cccc3cc2CNc2ncnc3[nH]cnc23)c1
- IC50 (PIK3CD (Human) [1]): 71 nM

Compound: O=C(Nc1ccc(-c2nc(N3CCOCC3)nc(N3CCOCC3)n2)cc1)NC1CCNCC1
- IC50 (PIK3CA (human) [6]): 1520 nM
- IC50 (PIK3CG (human)): 7470 nM

Compound: CCNC(=O)Nc1ccc(-c2nc(N3CCOC[C@H]3C)c3c(ncn3C)n2)cc1
- Ki (PIK3CA (human) [2]): 5800 nM
- Ki (PIK3CD (Human) [3]): 4000 nM

Compound: Cc1nc(Nc2cc(C(=O)O)n(CCc3ccccc3)c2)nc2c1cc(F)c(=O)n2C1CCCC1
- IC50 (PIK3CG (human)): 15 nM

Compound: COc1cc2sc(C(=O)Nc3nnn[nH]3)c(SCCc3ccccc3)c2cc1OC
- IC50 (PIK3CG (human)): 522 nM

Compound: O=C(Nc1ccc(-c2nc(N3CCOCC3)nc(N3CCOCC3)n2)cc1)Nc1cccs1
- IC50 (PIK3CA (human) [6]): 2 nM
- IC50 (PIK3CG (human)): 23 nM

Compound: COc1cc2sc(C(=O)Nc3nnn[nH]3)c(SCCc3ccccc3)c2cc1C
- IC50 (PIK3CG (human)): 215 nM

Compound: C.COC(=O)c1ccc(C(=O)Nc2cccc(CNC3CCC(Nc4cccc5cnccc45)CC3)c2)cc1 (centres undefined)
- IC50 (ROCK2 (human)): < 100 nM

Compound: COc1ccc2sc(C(=O)Nc3nnn[nH]3)c(Sc3cccc(Cl)c3Cl)c2c1
- IC50 (PIK3CG (human)): 3450 nM

Compound: Cc1nc(Nc2cc(C(=O)O)n(C)c2)nc2c1ccc(=O)n2C1CCCC(C)C1 (centres undefined)
- IC50 (PIK3CG (human)): 180 nM

Compound: CNC(=O)C[C@@H](NC(=O)c1ccc(-c2cn[nH]c2)c(C)c1)c1ccccc1
- IC50 (ROCK2 (human)): 21.7 nM

Compound: O=c1cc(N2CCOCC2)oc2c(-c3ccccc3)cccc12
- IC50 (PIK3CD (Human) [1]): 1020 nM
- IC50 (PIK3CD (Human) [3]): 268 nM

Compound: COc1ncc(N2CCc3ncnc(N[C@H]4CCN(C(=O)[C@H]5CC[C@H](O)CC5)C4)c3C2)cc1C(F)(F)F
- IC50 (PIK3CA (human) [2]): 106 nM
- IC50 (PIK3CD (Human) [3]): 7 nM

Compound: O=C(Nc1ccc(CO)cc1)Nc1ccc(-c2nc(N3CCOCC3)c3ncccc3n2)cc1
- IC50 (PIK3CD (Human) [3]): 37 nM
